Earlier results, collected in patent US20150320675A1, “Modified Release Osmotic Pump for PH-Responsive Drug Delivery” (UNIVERSITY OF UTAH RESEARCH FOUNDATION, priority 2013, published 2015).

Experiments:
reverse transcriptase = reverse transcriptase (Human immunodeficiency virus type 1 group M subtype B, UniProt P04585)

In the case of Cc1cc(C)cc(C(=O)c2c(C(C)C)c(=O)[nH]c(=O)n2CC2CC2)c1 [IQP-0528, 1-(cyclopropylmethyl)-6-(3,5-dimethylbenzoyl)-5-isopropylpyrimidine-2,4(1H,3H)-dione], the “non-nucleoside reverse transcriptase inhibition activity” value (reverse transcriptase) is listed as “potent nanomolar” and the entry inhibition activity (entry) is listed as “potent nanomolar”.
